Test results: paper PMC11167047 (Cell Death Discovery, 2024)

Key:
Experiment in all cases: kinome screen (33PanQinase)
Format in all cases: biochemical
EPHB4 = molecular target: T1, EPHB4 (Homo sapiens, UniProt P54760)
T1 construct: purchased Reaction Biology Europe GmbH (formerly ProQinase)
T1 sequence (P54760 16-987): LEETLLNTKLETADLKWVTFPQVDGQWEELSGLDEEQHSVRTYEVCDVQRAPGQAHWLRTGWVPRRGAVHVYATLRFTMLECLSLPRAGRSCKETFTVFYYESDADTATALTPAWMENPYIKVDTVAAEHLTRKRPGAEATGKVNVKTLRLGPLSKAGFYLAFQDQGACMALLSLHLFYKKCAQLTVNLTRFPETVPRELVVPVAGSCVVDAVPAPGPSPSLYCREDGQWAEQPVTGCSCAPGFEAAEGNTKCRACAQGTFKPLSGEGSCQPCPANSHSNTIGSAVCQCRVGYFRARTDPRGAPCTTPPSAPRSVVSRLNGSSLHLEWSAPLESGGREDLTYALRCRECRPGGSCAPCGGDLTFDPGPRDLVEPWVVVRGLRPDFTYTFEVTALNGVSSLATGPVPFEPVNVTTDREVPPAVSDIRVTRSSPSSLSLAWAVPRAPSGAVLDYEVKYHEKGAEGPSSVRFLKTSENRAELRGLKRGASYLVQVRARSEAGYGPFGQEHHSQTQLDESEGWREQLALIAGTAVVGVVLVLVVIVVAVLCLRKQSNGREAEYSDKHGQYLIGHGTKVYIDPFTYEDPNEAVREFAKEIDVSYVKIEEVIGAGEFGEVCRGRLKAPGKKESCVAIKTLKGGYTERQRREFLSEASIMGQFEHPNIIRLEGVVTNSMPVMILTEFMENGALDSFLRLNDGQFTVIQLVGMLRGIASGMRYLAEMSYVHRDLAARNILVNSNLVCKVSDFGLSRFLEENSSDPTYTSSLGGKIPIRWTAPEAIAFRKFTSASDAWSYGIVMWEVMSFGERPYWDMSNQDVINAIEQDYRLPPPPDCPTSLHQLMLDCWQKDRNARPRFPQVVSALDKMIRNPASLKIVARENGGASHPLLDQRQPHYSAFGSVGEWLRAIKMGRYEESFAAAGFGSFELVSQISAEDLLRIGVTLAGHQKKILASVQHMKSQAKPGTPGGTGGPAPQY
Method: (§1) The Kinome Screening was performed by Reaction Biology Europe GmbH (http://reactionbiology.com; Freiburg i. Br., Germany).

HIPK1 = molecular target: T2, HIPK1 (Homo sapiens, UniProt Q86Z02)
T2 construct: purchased Reaction Biology Europe GmbH (formerly ProQinase)
Method: as §1

AuroraA = molecular target: T3, AuroraA (Homo sapiens, UniProt O14965)
T3 construct: purchased Reaction Biology Europe GmbH (formerly ProQinase)
T3 sequence (O14965 1-403): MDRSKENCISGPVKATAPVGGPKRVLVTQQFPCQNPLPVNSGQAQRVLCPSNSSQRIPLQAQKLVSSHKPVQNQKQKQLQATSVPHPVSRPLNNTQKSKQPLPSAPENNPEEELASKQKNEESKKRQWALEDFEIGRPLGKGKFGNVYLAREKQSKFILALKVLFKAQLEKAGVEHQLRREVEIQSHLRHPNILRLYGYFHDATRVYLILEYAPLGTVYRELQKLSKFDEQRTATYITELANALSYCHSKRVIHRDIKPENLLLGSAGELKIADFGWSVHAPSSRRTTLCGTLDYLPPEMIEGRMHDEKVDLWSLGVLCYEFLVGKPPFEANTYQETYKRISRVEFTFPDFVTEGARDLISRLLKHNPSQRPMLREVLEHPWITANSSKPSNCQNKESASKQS
Method: as §1

MKK4 = molecular target: T4, MKK4 (Homo sapiens, UniProt P45985)
T4 construct: purchased Reaction Biology Europe GmbH (formerly ProQinase)
T4 sequence (P45985 1-399): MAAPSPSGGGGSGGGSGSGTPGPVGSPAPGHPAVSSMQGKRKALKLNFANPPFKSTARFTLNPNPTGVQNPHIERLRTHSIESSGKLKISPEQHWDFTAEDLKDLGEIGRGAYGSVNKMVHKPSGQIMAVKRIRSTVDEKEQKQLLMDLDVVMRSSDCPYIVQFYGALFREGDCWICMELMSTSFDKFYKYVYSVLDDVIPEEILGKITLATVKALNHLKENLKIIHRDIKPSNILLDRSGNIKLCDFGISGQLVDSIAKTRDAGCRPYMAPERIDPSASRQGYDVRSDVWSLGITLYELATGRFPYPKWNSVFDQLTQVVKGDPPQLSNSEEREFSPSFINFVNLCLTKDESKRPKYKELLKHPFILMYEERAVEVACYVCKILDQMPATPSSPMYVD
Method: as §1

FES = molecular target: T5, FES (Homo sapiens, UniProt P07332)
T5 construct: purchased Reaction Biology Europe GmbH (formerly ProQinase)
Method: as §1

TSK2 = molecular target: T6, TSK2 (Homo sapiens, UniProt Q96PF2)
T6 construct: purchased Reaction Biology Europe GmbH (formerly ProQinase)
T6 sequence (Q96PF2 1-358): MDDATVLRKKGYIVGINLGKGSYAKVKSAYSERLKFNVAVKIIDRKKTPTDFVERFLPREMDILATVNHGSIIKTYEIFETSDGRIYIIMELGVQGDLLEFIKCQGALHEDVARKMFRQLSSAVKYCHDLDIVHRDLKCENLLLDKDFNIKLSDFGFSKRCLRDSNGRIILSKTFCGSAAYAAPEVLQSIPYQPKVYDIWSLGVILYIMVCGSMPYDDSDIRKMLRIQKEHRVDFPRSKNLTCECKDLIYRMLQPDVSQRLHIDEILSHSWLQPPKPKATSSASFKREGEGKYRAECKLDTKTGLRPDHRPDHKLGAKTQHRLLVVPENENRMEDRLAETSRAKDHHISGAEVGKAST
Method: as §1

T5 sequence (P07332 whole entry): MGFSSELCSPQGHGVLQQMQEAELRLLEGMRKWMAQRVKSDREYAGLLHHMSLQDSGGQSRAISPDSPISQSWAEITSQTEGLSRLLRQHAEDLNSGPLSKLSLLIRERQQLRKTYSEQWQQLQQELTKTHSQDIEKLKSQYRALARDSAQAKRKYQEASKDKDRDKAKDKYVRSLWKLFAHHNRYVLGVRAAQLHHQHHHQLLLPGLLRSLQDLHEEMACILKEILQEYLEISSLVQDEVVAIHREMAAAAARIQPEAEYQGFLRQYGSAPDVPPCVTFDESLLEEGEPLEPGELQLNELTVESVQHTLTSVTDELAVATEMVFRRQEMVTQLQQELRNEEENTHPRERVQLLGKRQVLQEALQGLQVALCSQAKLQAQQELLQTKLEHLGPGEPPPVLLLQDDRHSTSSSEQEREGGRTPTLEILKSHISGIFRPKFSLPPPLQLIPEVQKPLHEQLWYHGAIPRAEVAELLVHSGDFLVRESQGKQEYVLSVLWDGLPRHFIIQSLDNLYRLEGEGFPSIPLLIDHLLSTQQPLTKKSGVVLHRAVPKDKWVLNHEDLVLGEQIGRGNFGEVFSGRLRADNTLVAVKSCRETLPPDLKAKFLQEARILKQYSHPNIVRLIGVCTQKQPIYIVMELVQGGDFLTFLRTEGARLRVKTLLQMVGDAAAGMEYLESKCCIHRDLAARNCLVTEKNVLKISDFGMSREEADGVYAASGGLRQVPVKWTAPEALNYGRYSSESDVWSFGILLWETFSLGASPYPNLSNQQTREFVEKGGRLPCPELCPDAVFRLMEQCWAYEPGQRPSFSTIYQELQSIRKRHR
T2 sequence (Q86Z02 whole entry): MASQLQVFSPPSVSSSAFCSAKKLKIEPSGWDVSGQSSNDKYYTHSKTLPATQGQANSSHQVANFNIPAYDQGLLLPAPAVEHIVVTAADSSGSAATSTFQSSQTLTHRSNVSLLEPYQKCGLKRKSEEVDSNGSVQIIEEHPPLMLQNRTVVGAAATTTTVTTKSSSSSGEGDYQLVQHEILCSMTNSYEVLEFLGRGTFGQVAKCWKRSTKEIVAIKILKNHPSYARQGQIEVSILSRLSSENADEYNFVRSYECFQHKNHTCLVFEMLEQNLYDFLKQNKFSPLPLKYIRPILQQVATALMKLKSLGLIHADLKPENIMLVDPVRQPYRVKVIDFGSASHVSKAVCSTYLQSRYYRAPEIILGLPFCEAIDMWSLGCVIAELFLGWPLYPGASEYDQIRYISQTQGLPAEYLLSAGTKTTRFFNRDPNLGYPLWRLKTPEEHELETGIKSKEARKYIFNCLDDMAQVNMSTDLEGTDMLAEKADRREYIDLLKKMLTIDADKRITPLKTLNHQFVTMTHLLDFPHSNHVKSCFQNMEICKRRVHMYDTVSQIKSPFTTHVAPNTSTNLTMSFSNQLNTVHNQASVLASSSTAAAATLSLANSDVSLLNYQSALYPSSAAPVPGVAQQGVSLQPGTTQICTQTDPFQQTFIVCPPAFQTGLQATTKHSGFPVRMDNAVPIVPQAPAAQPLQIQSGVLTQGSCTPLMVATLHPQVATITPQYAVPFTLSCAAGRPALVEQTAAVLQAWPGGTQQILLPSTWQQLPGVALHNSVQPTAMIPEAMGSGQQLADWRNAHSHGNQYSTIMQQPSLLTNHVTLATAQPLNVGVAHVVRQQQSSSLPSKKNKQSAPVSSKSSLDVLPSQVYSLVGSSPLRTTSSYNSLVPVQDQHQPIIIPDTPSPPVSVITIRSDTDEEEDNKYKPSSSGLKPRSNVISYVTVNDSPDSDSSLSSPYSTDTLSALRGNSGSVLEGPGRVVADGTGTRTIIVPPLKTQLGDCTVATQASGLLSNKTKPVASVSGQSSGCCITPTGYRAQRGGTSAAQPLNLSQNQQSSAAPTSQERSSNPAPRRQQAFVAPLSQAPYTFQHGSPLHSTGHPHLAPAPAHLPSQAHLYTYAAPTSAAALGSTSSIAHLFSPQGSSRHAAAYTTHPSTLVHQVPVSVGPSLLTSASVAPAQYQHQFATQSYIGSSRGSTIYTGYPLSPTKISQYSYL

Structure (SMILES) | residual kinase activity (EPHB4; 0.03 µM) | residual kinase activity (EPHB4; 0.3 µM) | residual kinase activity (HIPK1; 0.03 µM) | residual kinase activity (HIPK1; 0.3 µM) | residual kinase activity (AuroraA; 0.03 µM) | residual kinase activity (AuroraA; 0.3 µM) | residual kinase activity (MKK4; 0.03 µM) | residual kinase activity (MKK4; 0.3 µM) | residual kinase activity (FES; 0.03 µM) | residual kinase activity (FES; 0.3 µM) | residual kinase activity (TSK2; 0.03 µM) | residual kinase activity (TSK2; 0.3 µM) | residual kinase activity (EPHB4; 3 µM) | residual kinase activity (HIPK1; 3 µM) | residual kinase activity (AuroraA; 3 µM) | residual kinase activity (MKK4; 3 µM) | residual kinase activity (FES; 3 µM) | residual kinase activity (TSK2; 3 µM)
COc1ccnc2[nH]cc(-c3cc(N)nc(N)c3)c12 [meriolin 16] | 97 % of control | 90 % of control | 49 % of control | 10 % of control | 109 % of control | 107 % of control | 86 % of control | 66 % of control | 93 % of control | 87 % of control | 107 % of control | 92 % of control |  |  |  |  |  | 
c1ccc(CNc2cc(-c3c[nH]c4ncccc34)ccn2)cc1 [meriolin 36] |  | 110 % of control |  | 47 % of control |  | 81 % of control |  | 45 % of control |  | 83 % of control |  | 103 % of control | 85 % of control | 10 % of control | 35 % of control | 9 % of control | 50 % of control | 94 % of control
